In patent publication US4206224A, “Treatment of infections” (Beecham Group Limited, priority 1976, dated 1980):
≈ marks a conversion by molar mass, not a printed value. Entries after “also recorded” stand apart in the source; their conditions may differ. Where a name gives a salt, the structure may show the parent alone.

Key:
M. bovis 25025 = assay: microbe, parasite or virus in culture; assay type: cell-based; settings: 25025, 168 h, read-out: MIC (in vitro antimycoplasmal activity)
M. pulmonis 'JB' [1] = assay: Antimycoplasmal MIC, metabolic-inhibition test, M. pulmonis 'JB'; assay type: cell-based; settings: Mycoplasmopsis pulmonis, 168 h, dilutions 250-0.5 μg/ml, 37° C., seven days, read-out: MIC (in vitro antimycoplasmal activity)
[2] = tested on: mycoplasmas from human and veterinary sources; assay: Antimycoplasmal activity in vitro, overall; assay type: cell-based
Protocol: 1. The minimal inhibitory concentrations (MIC) of pseudomonic acid and methyl pseudomonate were determined in Microtitre plates, by a modification of the metabolic-inhibition test (Taylor-Robinson, 1967). The compounds were serially diluted in sterile de-ionised water to give a range of concentrations from 250-0.5 μg/ml. Mycoplasma broth containing 1% (w/v) of glucose and 0.005% (w/v) of phenon red, was added at a strength to compensate for its dilution by the aqueous drug solution. Approximately 10^4 colony forming units of mycoplasma were added to each concentration of drug. Drug-free infected, noninfected and pH control wells were included on each plate. Plates were sealed with cellotape and incubated at 37° C. for seven days. The MIC was the lowest concentration of compound that prevented a colour change in the mycoplasma broth, caused by the metabolism of glucose by the mycoplasmas.

M. pneumoniae 427 a = assay: Antimycoplasmal MIC, metabolic-inhibition test, M. pneumoniae 427 a; assay type: cell-based; settings: Mycoplasmoides pneumoniae, 168 h, dilutions 250-0.5 μg/ml, 37° C., seven days, read-out: MIC (in vitro antimycoplasmal activity)
M. dispar H225 = assay: Antimycoplasmal MIC, metabolic-inhibition test, M. dispar H225; assay type: cell-based; settings: 168 h, dilutions 250-0.5 μg/ml, 37° C., seven days, read-out: MIC (in vitro antimycoplasmal activity)
M. fermentans MW KL 4 = assay: Antimycoplasmal MIC, metabolic-inhibition test, M. fermentans MW KL 4; assay type: cell-based; settings: Mycoplasmopsis fermentans, MWKL4, 168 h, dilutions 250-0.5 μg/ml, 37° C., seven days, read-out: MIC (in vitro antimycoplasmal activity)
M. gallisepticum S6 = assay: Antimycoplasmal MIC, metabolic-inhibition test, M. gallisepticum S6; assay type: cell-based; settings: Mycoplasmoides gallisepticum, 168 h, dilutions 250-0.5 μg/ml, 37° C., seven days, read-out: MIC (in vitro antimycoplasmal activity)
M. suipneumoniae (Laber) = assay: Antimycoplasmal MIC, metabolic-inhibition test, M. suipneumoniae (Laber); assay type: cell-based; settings: Mesomycoplasma hyopneumoniae, 168 h, dilutions 250-0.5 μg/ml, 37° C., seven days, read-out: MIC (in vitro antimycoplasmal activity)
M. synoviae 25204 = assay: Antimycoplasmal MIC, metabolic-inhibition test, M. synoviae 25204; assay type: cell-based; settings: Mycoplasmopsis synoviae, 168 h, dilutions 250-0.5 μg/ml, 37° C., seven days, read-out: MIC (in vitro antimycoplasmal activity)
Haemophilus influenzae = assay: Antibacterial spectrum (MIC), Haemophilus influenzae; assay type: cell-based
Mycoplasma species = assay: Antibacterial spectrum (MIC), Mycoplasma species
staphylococci = assay: Antibacterial spectrum, staphylococci; assay type: cell-based
Staphylococcus aureus = assay: Antibacterial spectrum (MIC), Staphylococcus aureus; assay type: cell-based
Streptococcus faecalis = assay: Antibacterial spectrum (MIC), Streptococcus faecalis; assay type: cell-based; settings: Enterococcus faecalis
Neisseria meningitidis = assay: Antibacterial spectrum (MIC), Neisseria meningitidis; assay type: cell-based
[3] = Blood and urinary excretion levels, rat; assay type: in vivo; settings: 100 mg/kg; for Cmax: blood, read-out: Peak Level (blood); for dose excreted: urine, read-out: Urinary Recovery
From the text: (§1) The results of administering pseudomonic acid to four different animal species are shown in Table 2 in terms of peak blood levels and urinary recovery.

Toxicity (LD50), rat = assay type: in vivo; settings: for LD50: in vivo
Streptococcus pyogenes = assay: Antibacterial spectrum (MIC), Streptococcus pyogenes; assay type: cell-based
[4] = tested on: Bordetella bronchiseptica; assay: Antibacterial activity, Bordetella bronchiseptica; assay type: cell-based
Pasteurella multocida = assay: Antibacterial activity, Pasteurella multocida; assay type: cell-based
Gram-negative bacilli = assay: Antibacterial spectrum (MIC), Gram-negative bacilli
M. synoviae ATCC 25204 = assay: M. synoviae-induced airsacculitis of chicken; assay type: in vivo, chicken (white leghorn chicks) infected with M. synoviae
Protocol: 3. M. synoviae-induced airsacculitis of chicken 0.5 ml volumes of a broth culture containing about 10^8 CFU of M. synoviae ATCC No. 25204 were injected into the left abdominal air sacs of groups of five, one week old, specific pathogen free (SPF) white leghorn chicks. […] Seven days after infection the chicks were autopsied and the air sacs were examined macroscopically for mycoplasmal lesions and microbiologically for the presence of M. synoviae.

streptococci = assay: Antibacterial spectrum, streptococci; assay type: cell-based; settings: most streptococci
M. pulmonis 'JB' [5] = assay: M. pulmonis-induced arthritis of mice; settings: for Number of mice with arthritis/total number mice: 200 mg/kg × 5 s.c.; for prevented the development of arthritis: 200 mg/kg s.c. daily, five consecutive days
[6] = Blood and urinary excretion levels, squirrel monkey; assay type: in vivo; settings: 100 mg/kg; for Cmax: blood, read-out: Peak Level (blood); for dose excreted: urine, read-out: Urinary Recovery
From the text: as §1

Streptococcus pneumoniae = assay: Antibacterial spectrum (MIC), Streptococcus pneumoniae; assay type: cell-based
Toxicity (LD50), mouse = assay type: in vivo; settings: for LD50: in vivo
Neisseria gonorrhoeae = assay: Antibacterial spectrum (MIC), Neisseria gonorrhoeae; assay type: cell-based
[7] = tested on: Staphylococcus epidermidis; assay: Antibacterial spectrum (MIC), Staphylococcus epidermidis; assay type: cell-based
[8] = Blood and urinary excretion levels, dog; assay type: in vivo; settings: 100 mg/kg; for Cmax: blood, read-out: Peak Level (blood); for dose excreted: urine, read-out: Urinary Recovery
From the text: as §1

[9] = Blood and urinary excretion levels, mouse; assay type: in vivo; settings: 50 mg/kg; for Cmax: blood, read-out: Peak Level (blood); for dose excreted: urine, read-out: Urinary Recovery
From the text: as §1

With `C/C(=C\C(=O)OCCCCCCCCC(=O)O)C[C@@H]1OC[C@H](C[C@@H]2O[C@H]2[C@@H](C)[C@H](C)O)[C@@H](O)[C@H]1O` [Pseudomonic acid (Na salt)] the MIC (M. bovis 25025) was under 0.5 µg/mL, the MIC (M. pulmonis 'JB' [1]) was under 0.5 µg/mL and the “antimycoplasmal activity in vitro (in words)” value [2] was “good antimycoplasmal activity in vitro”. It also gave an MIC (M. pneumoniae 427 a) of under 0.5 µg/mL, an MIC (M. dispar H225) of under 0.5 µg/mL and an MIC (M. fermentans MW KL 4) of under 0.5 µg/mL. It also gave an MIC (M. gallisepticum S6) of 7.8 µg/mL, an MIC (M. suipneumoniae (Laber)) of 1.9 to 3.9 µg/mL and an MIC (M. synoviae 25204) of under 0.5 µg/mL.

In the case of `C/C(=C\C(=O)OCCCCCCCCC(=O)O)C[C@@H]1OC[C@H](C[C@@H]2O[C@H]2[C@@H](C)[C@H](C)O)[C@@H](O)[C@H]1O` [Pseudomonic acid], the MIC (Haemophilus influenzae) is reported as 0.12 µg/mL (≈ 0.24 µM), the “antibacterial activity / susceptibility (in words)” value (Haemophilus influenzae; including strains resistant to other antibiotics) is reported as “very susceptible; also recorded: particularly high activity” and the “antimycoplasmal activity / sensitivity (in words)” value (Mycoplasma species; Mycoplasma sp, b37: most mycoplasma species) is reported as “very sensitive; also recorded: particularly high activity”. The MIC (Mycoplasma species; Mycoplasma species) was under 0.01 to 25 µg/mL, the “antibacterial activity (in words)” value (staphylococci) was “good activity” and the MIC (Staphylococcus aureus) was 0.25 µg/mL (≈ 0.499 µM). It also gave an MIC (Streptococcus faecalis) of 50 µg/mL (≈ 99.9 µM), an MIC (Neisseria meningitidis) of 0.02 µg/mL (≈ 0.0399 µM) and a Cmax ([3]; im) of 15800 ng/mL. The Cmax ([3]; iv) was 66700 ng/mL, the dose excreted ([3]; im) was under 1% and the dose excreted ([3]; iv) was under 1%. The LD50 (Toxicity (LD50), rat; iv) was 1310 to 2560 mg/kg, the LD50 (Toxicity (LD50), rat; po) was 5000 mg/kg and the LD50 (Toxicity (LD50), rat; sc) was 5000 mg/kg. For the same compound, the “toxicity (in words)” value (Toxicity (LD50), rat; three routes) was “low degree of toxicity”, the MIC (Streptococcus pyogenes) was 0.25 µg/mL (≈ 0.499 µM) and the “antibacterial activity (in words)” value [4] was “has activity”. The “antibacterial activity (in words)” value (Pasteurella multocida) was “has activity”, the “antibacterial activity (in words)” value (Gram-negative bacilli) was “relatively inactive” and the “prevented the development of airsac lesions” value (M. synoviae ATCC 25204; 200 mg/kg i.m. twice per day) was “four out of five birds”. For the same compound, the “re-isolation of M. synoviae from airsacs (in words)” value (M. synoviae ATCC 25204; 200 mg/kg i.m. twice per day) was “not re-isolated from the airsacs of any”, the Number birds protected/total (M. synoviae ATCC 25204; 200 mg/kg × 7 i.m., autopsy seven days after infection) was 4/5 and the “Number of birds from which M. synoviae was re-isolated” value (M. synoviae ATCC 25204; 200 mg/kg × 7 i.m., seven days after infection) was 0. For the same compound, the “activity in vivo in experimentally induced mycoplasmal infection (in words)” value (M. synoviae ATCC 25204; chicken) was “active in vivo”, the “antibacterial activity (in words)” value (streptococci) was “good activity” and the “Number of mice with arthritis/total number mice” value (M. pulmonis 'JB' [5]; Expt 1, day 3 after infection) was 0/6. For the same compound, the “Number of mice with arthritis/total number mice” value (M. pulmonis 'JB' [5]; Expt 1, day 7 after infection) was 1/5, the “Number of mice with arthritis/total number mice” value (M. pulmonis 'JB' [5]; Expt 1, day 10 after infection) was 1/5 and the “Number of mice with arthritis/total number mice” value (M. pulmonis 'JB' [5]; Expt 1, day 14 after infection) was 1/5. For the same compound, the “Number of mice with arthritis/total number mice” value (M. pulmonis 'JB' [5]; Expt 2, day 3 after infection) was 0/8, the “Number of mice with arthritis/total number mice” value (M. pulmonis 'JB' [5]; Expt 2, day 8 after infection) was 2/8 and the “Number of mice with arthritis/total number mice” value (M. pulmonis 'JB' [5]; Expt 2, day 10 after infection) was 2/8. The “Number of mice with arthritis/total number mice” value (M. pulmonis 'JB' [5]; Expt 2, day 14 after infection) was 4/8, the “prevented the development of arthritis” value (M. pulmonis 'JB' [5]; first experiment) was “four out of five mice” and the “activity in vivo in experimentally induced mycoplasmal infection (in words)” value (M. pulmonis 'JB' [5]; mice) was “active in vivo”. The “prevented the development of arthritis” value (M. pulmonis 'JB' [5]; second experiment) was “four out of eight mice”, the Cmax ([6]; im) was 40000 ng/mL and the Cmax ([6]; po) was 26800 ng/mL. The dose excreted ([6]; im) was 2%, the dose excreted ([6]; po) was 1.5% and the MIC (Streptococcus pneumoniae) was 0.12 µg/mL (≈ 0.24 µM). The LD50 (Toxicity (LD50), mouse; iv) was 1640 to 2050 mg/kg, the LD50 (Toxicity (LD50), mouse; p.c. (so in the source)) was 5000 mg/kg and the LD50 (Toxicity (LD50), mouse; sc) was 4000 to 5000 mg/kg. For the same compound, the “toxicity (in words)” value (Toxicity (LD50), mouse; three routes) was “low degree of toxicity”, the MIC (Neisseria gonorrhoeae; Neisseria gonorrhoeae) was 0.01 µg/mL (≈ 0.02 µM) and the “antibacterial activity / susceptibility (in words)” value (Neisseria gonorrhoeae; Neisseria gonorrhoeae (gonococci), including strains resistant to other antibiotics) was “very susceptible; also recorded: particularly high activity”. It also gave an MIC [7] of 0.25 µg/mL (≈ 0.499 µM), a Cmax ([8]; im) of 25300 ng/mL and a Cmax ([8]; po) of 3600 ng/mL. It also gave a dose excreted ([8]; im) of 1%, a dose excreted ([8]; po) of under 1% and a Cmax ([9]; po) of under 1000 ng/mL. It also gave a Cmax ([9]; sc) of 7200 ng/mL, a dose excreted ([9]; po) of under 1% and a dose excreted ([9]; sc) of under 1%.

For `COC(=O)CCCCCCCCOC(=O)/C=C(\C)C[C@@H]1OC[C@H](C[C@@H]2O[C@H]2[C@@H](C)[C@H](C)O)[C@@H](O)[C@H]1O` [methyl pseudomonate], the MIC (M. bovis 25025) was under 0.5 µg/mL, the MIC (M. pulmonis 'JB' [1]) was under 0.5 µg/mL and the “antimycoplasmal activity in vitro (in words)” value [2] was “good antimycoplasmal activity in vitro”. The MIC (M. pneumoniae 427 a) was 7.8 µg/mL (≈ 15.2 µM), the MIC (M. dispar H225) was under 0.5 µg/mL and the MIC (M. fermentans MW KL 4) was under 0.5 µg/mL. For the same compound, the MIC (M. gallisepticum S6) was 15.6 µg/mL (≈ 30.3 µM), the MIC (M. suipneumoniae (Laber)) was 7.8 µg/mL (≈ 15.2 µM) and the MIC (M. synoviae 25204) was under 0.5 µg/mL.
